Data from patent US20230085307A1, “PYRIDAZINONE COMPOUND AND HERBICIDE” (NISSAN CHEMICAL CORPORATION, priority 2019, published 2023).

Columns and labels:
[1] = test system: velvetleaf; assay: Test Example 5: herbicidal effect by foliage application, plastic box (Table 20, symbol M); type: in vivo, velvetleaf (Abutilon theophrasti); settings: 320 g/ha, foliage application after 14-day growth, evaluated three weeks after application
Procedure, shortened: (§1)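 Plants sown in sterilized diluvial soil and grown 14 days in a greenhouse at 25° C to 30° C, then sprayed on the foliage with the compound's emulsion diluted in water to a predetermined herbicide amount. Injury to weeds and crops scored three weeks after application on a visual rating scale.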

[2] = test system: barnyard grass; assay: Test Example 3: herbicidal effect by foliage application, Wagner pot (Table 18, symbol H); type: in vivo, barnyard grass (Echinochloa crus-galli); settings: 320 g/ha
Procedure, shortened: (§2)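 Plants were sown in alluvial soil held under 0.1–0.5 cm standing water and grown 14 days in a greenhouse at 25–30 °C. An emulsifiable formulation, water-diluted to the set dose, was then sprayed onto the foliage, and effects were scored three weeks later using previously defined criteria.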

[3] = test system: redroot pigweed; assay: Test Example 5: herbicidal effect by foliage application, plastic box (Table 20, symbol N); type: in vivo, redroot pigweed (Amaranthus retroflexus); settings: 320 g/ha, foliage application after 14-day growth, evaluated three weeks after application
Procedure, shortened: as §1

[4] = test system: barnyard grass; assay: Test Example 4: herbicidal effect by soil treatment (Table 19, symbol H); type: in vivo, barnyard grass (Echinochloa crus-galli); settings: amount of applied herbicide 320 g/ha
Procedure, shortened: (§3)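 Three weeks of greenhouse growth at 25° C. to 30° C. followed a uniform surface spray of water-diluted emulsion at a predetermined herbicide amount. Seeds had been sown beforehand under about 1.5 cm of sterilized diluvial soil. Grading followed criteria set out in an earlier test.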

[5] = test system: southern crabgrass; assay: Test Example 5: herbicidal effect by foliage application, plastic box (Table 20, symbol F); type: in vivo, southern crabgrass (Digitaria ciliaris); settings: 320 g/ha, foliage application after 14-day growth, evaluated three weeks after application
Procedure, shortened: as §1

[6] = test system: windgrass; assay: Test Example 4: herbicidal effect by soil treatment (Table 19, symbol L); type: in vivo, windgrass (Apera spica-venti); settings: amount of applied herbicide 320 g/ha
Procedure, shortened: as §3

[7] = test system: lambsquarters; assay: Test Example 5: herbicidal effect by foliage application, plastic box (Table 20, symbol O); type: in vivo, lambsquarters (Chenopodium album); settings: 320 g/ha, foliage application after 14-day growth, evaluated three weeks after application
Procedure, shortened: as §1

[8] = test system: redroot pigweed; assay: Test Example 4: herbicidal effect by soil treatment (Table 19, symbol N); type: in vivo, redroot pigweed (Amaranthus retroflexus); settings: amount of applied herbicide 320 g/ha
Procedure, shortened: as §3

[9] = test system: green foxtail; assay: Test Example 4: herbicidal effect by soil treatment (Table 19, symbol G); type: in vivo, green foxtail (Setaria viridis); settings: amount of applied herbicide 320 g/ha
Procedure, shortened: as §3

[10] = test system: wild oat; assay: Test Example 4: herbicidal effect by soil treatment (Table 19, symbol I); type: in vivo, wild oat (Avena fatua); settings: amount of applied herbicide 320 g/ha
Procedure, shortened: as §3

[11] = test system: green foxtail; assay: Test Example 5: herbicidal effect by foliage application, plastic box (Table 20, symbol G); type: in vivo, green foxtail (Setaria viridis); settings: 320 g/ha, foliage application after 14-day growth, evaluated three weeks after application
Procedure, shortened: as §1

[12] = test system: persian speedwell; assay: Test Example 5: herbicidal effect by foliage application, plastic box (Table 20, symbol R); type: in vivo, Persian speedwell (Veronica persica); settings: 320 g/ha, foliage application after 14-day growth, evaluated three weeks after application
Procedure, shortened: as §1

[13] = test system: rice flat sedge; assay: Test Example 3: herbicidal effect by foliage application, Wagner pot (Table 18, symbol E); type: in vivo, rice flat sedge (Cyperus iria); settings: 320 g/ha
Procedure, shortened: as §2

[14] = test system: blackgrass; assay: Test Example 5: herbicidal effect by foliage application, plastic box (Table 20, symbol J); type: in vivo, blackgrass (Alopecurus myosuroides); settings: 320 g/ha, foliage application after 14-day growth, evaluated three weeks after application
Procedure, shortened: as §1

[15] = test system: chickweed; assay: Test Example 5: herbicidal effect by foliage application, plastic box (Table 20, symbol P); type: in vivo, common chickweed (Stellaria media); settings: 320 g/ha, foliage application after 14-day growth, evaluated three weeks after application
Procedure, shortened: as §1

[16] = test system: velvetleaf; assay: Test Example 4: herbicidal effect by soil treatment (Table 19, symbol M); type: in vivo, velvetleaf (Abutilon theophrasti); settings: amount of applied herbicide 320 g/ha
Procedure, shortened: as §3

[17] = test system: lambsquarters; assay: Test Example 4: herbicidal effect by soil treatment (Table 19, symbol O); type: in vivo, lambsquarters (Chenopodium album); settings: amount of applied herbicide 320 g/ha
Procedure, shortened: as §3

[18] = test system: Italian ryegrass; assay: Test Example 4: herbicidal effect by soil treatment (Table 19, symbol K); type: in vivo, Italian ryegrass (Lolium multiflorum); settings: amount of applied herbicide 320 g/ha
Procedure, shortened: as §3

[19] = test system: barnyard grass; assay: Test Example 5: herbicidal effect by foliage application, plastic box (Table 20, symbol H); type: in vivo, barnyard grass (Echinochloa crus-galli); settings: 320 g/ha, foliage application after 14-day growth, evaluated three weeks after application
Procedure, shortened: as §1

[20] = test system: chickweed; assay: Test Example 4: herbicidal effect by soil treatment (Table 19, symbol P); type: in vivo, common chickweed (Stellaria media); settings: amount of applied herbicide 320 g/ha
Procedure, shortened: as §3

[21] = test system: persian speedwell; assay: Test Example 4: herbicidal effect by soil treatment (Table 19, symbol R); type: in vivo, Persian speedwell (Veronica persica); settings: amount of applied herbicide 320 g/ha
Procedure, shortened: as §3

[22] = test system: wild oat; assay: Test Example 5: herbicidal effect by foliage application, plastic box (Table 20, symbol I); type: in vivo, wild oat (Avena fatua); settings: 320 g/ha, foliage application after 14-day growth, evaluated three weeks after application
Procedure, shortened: as §1

[23] = test system: southern crabgrass; assay: Test Example 4: herbicidal effect by soil treatment (Table 19, symbol F); type: in vivo, southern crabgrass (Digitaria ciliaris); settings: amount of applied herbicide 320 g/ha
Procedure, shortened: as §3

[24] = test system: Chinese sprangletop; assay: Test Example 3: herbicidal effect by foliage application, Wagner pot (Table 18, symbol D); type: in vivo, chinese sprangletop (Leptochloa chinensis); settings: 320 g/ha
Procedure, shortened: as §2

[25] = test system: blackgrass; assay: Test Example 4: herbicidal effect by soil treatment (Table 19, symbol J); type: in vivo, blackgrass (Alopecurus myosuroides); settings: amount of applied herbicide 320 g/ha
Procedure, shortened: as §3

[26] = test system: Italian ryegrass; assay: Test Example 5: herbicidal effect by foliage application, plastic box (Table 20, symbol K); type: in vivo, Italian ryegrass (Lolium multiflorum); settings: 320 g/ha, foliage application after 14-day growth, evaluated three weeks after application
Procedure, shortened: as §1

[27] = test system: windgrass; assay: Test Example 5: herbicidal effect by foliage application, plastic box (Table 20, symbol L); type: in vivo, windgrass (Apera spica-venti); settings: 320 g/ha, foliage application after 14-day growth, evaluated three weeks after application
Procedure, shortened: as §1

SMILES | herbicidal effect on M: velvetleaf (evaluation grade 0-5) [1] | herbicidal effect on barnyard grass (H) [2] | herbicidal effect on N: redroot pigweed (evaluation grade 0-5) [3] | Herbicidal effect by soil treatment, H: barnyard grass [4] | herbicidal effect on F: southern crabgrass (evaluation grade 0-5) [5] | Herbicidal effect by soil treatment, L: windgrass [6] | herbicidal effect on O: lambsquarters (evaluation grade 0-5) [7] | Herbicidal effect by soil treatment, N: redroot pigweed [8] | Herbicidal effect by soil treatment, G: green foxtail [9] | Herbicidal effect by soil treatment, I: wild oat [10] | herbicidal effect on G: green foxtail (evaluation grade 0-5) [11] | herbicidal effect on R: persian speedwell (evaluation grade 0-5) [12] | herbicidal effect on rice flat sedge (E) [13] | herbicidal effect on J: blackgrass (evaluation grade 0-5) [14] | herbicidal effect on P: chickweed (evaluation grade 0-5) [15] | Herbicidal effect by soil treatment, M: velvetleaf [16] | Herbicidal effect by soil treatment, O: lambsquarters [17] | Herbicidal effect by soil treatment, K: Italian ryegrass [18] | herbicidal effect on H: barnyard grass (evaluation grade 0-5) [19] | Herbicidal effect by soil treatment, P: chickweed [20] | further results
Cc1nn(C)c(=O)c(-c2c(-c3ccccc3)sc3c(Cl)cccc23)c1O [4-056] | 5 (Herbicidal rate of 90% or more (almost completely withered)) | 4 (Herbicidal rate of 70% or more and less than 90%) | 5 (Herbicidal rate of 90% or more (almost completely withered)) | 0 (Herbicidal rate of 5% or less (almost no effect)) | 2 (Herbicidal rate of 20% or more and less than 40%) | 3 (Herbicidal rate of 40% or more and less than 70%) | 3 (Herbicidal rate of 40% or more and less than 70%) | 0 (Herbicidal rate of 5% or less (almost no effect)) | 0 (Herbicidal rate of 5% or less (almost no effect)) | 0 (Herbicidal rate of 5% or less (almost no effect)) | 1 (Herbicidal rate of 5% or more and less than 20%) | 5 (Herbicidal rate of 90% or more (almost completely withered)) | 4 (Herbicidal rate of 70% or more and less than 90%) | 4 (Herbicidal rate of 70% or more and less than 90%) | 5 (Herbicidal rate of 90% or more (almost completely withered)) | 0 (Herbicidal rate of 5% or less (almost no effect)) | 0 (Herbicidal rate of 5% or less (almost no effect)) | 0 (Herbicidal rate of 5% or less (almost no effect)) | 3 (Herbicidal rate of 40% or more and less than 70%) | 3 (Herbicidal rate of 40% or more and less than 70%) | Herbicidal effect by soil treatment, R: persian speedwell [21]: 0 (Herbicidal rate of 5% or less (almost no effect)); herbicidal effect on I: wild oat (evaluation grade 0-5) [22]: 4 (Herbicidal rate of 70% or more and less than 90%); Herbicidal effect by soil treatment, F: southern crabgrass [23]: 0 (Herbicidal rate of 5% or less (almost no effect)); herbicidal effect on Chinese sprangletop (D) [24]: 4 (Herbicidal rate of 70% or more and less than 90%); Herbicidal effect by soil treatment, J: blackgrass [25]: 0 (Herbicidal rate of 5% or less (almost no effect)); herbicidal effect on K: Italian ryegrass (evaluation grade 0-5) [26]: 4 (Herbicidal rate of 70% or more and less than 90%); herbicidal effect on L: windgrass (evaluation grade 0-5) [27]: 5 (Herbicidal rate of 90% or more (almost completely withered))
CCCCOc1cccc(-c2sc3c(Cl)cccc3c2-c2c(O)c(C)nn(C)c2=O)c1 [4-068] | 0 (Herbicidal rate of 5% or less (almost no effect)) | 4 (Herbicidal rate of 70% or more and less than 90%) | 2 (Herbicidal rate of 20% or more and less than 40%) | 0 (Herbicidal rate of 5% or less (almost no effect)) | 0 (Herbicidal rate of 5% or less (almost no effect)) | 0 (Herbicidal rate of 5% or less (almost no effect)) | 0 (Herbicidal rate of 5% or less (almost no effect)) | 3 (Herbicidal rate of 40% or more and less than 70%) | 0 (Herbicidal rate of 5% or less (almost no effect)) | 0 (Herbicidal rate of 5% or less (almost no effect)) | 0 (Herbicidal rate of 5% or less (almost no effect)) | 5 (Herbicidal rate of 90% or more (almost completely withered)) | 3 (Herbicidal rate of 40% or more and less than 70%) | 0 (Herbicidal rate of 5% or less (almost no effect)) | 5 (Herbicidal rate of 90% or more (almost completely withered)) | 0 (Herbicidal rate of 5% or less (almost no effect)) | 0 (Herbicidal rate of 5% or less (almost no effect)) | 0 (Herbicidal rate of 5% or less (almost no effect)) | 0 (Herbicidal rate of 5% or less (almost no effect)) | 0 (Herbicidal rate of 5% or less (almost no effect)) | Herbicidal effect by soil treatment, R: persian speedwell [21]: 0 (Herbicidal rate of 5% or less (almost no effect)); herbicidal effect on I: wild oat (evaluation grade 0-5) [22]: 0 (Herbicidal rate of 5% or less (almost no effect)); Herbicidal effect by soil treatment, F: southern crabgrass [23]: 0 (Herbicidal rate of 5% or less (almost no effect)); herbicidal effect on Chinese sprangletop (D) [24]: 3 (Herbicidal rate of 40% or more and less than 70%); Herbicidal effect by soil treatment, J: blackgrass [25]: 0 (Herbicidal rate of 5% or less (almost no effect)); herbicidal effect on K: Italian ryegrass (evaluation grade 0-5) [26]: 0 (Herbicidal rate of 5% or less (almost no effect)); herbicidal effect on L: windgrass (evaluation grade 0-5) [27]: 0 (Herbicidal rate of 5% or less (almost no effect))
